Data published in patent US8309528B2, “Two pore channels as regulators of proliferation in cancer” (The Trustees of Columbia University in the City of New York, priority 2006, dated 2012).

Legend:
human TREK-1 = target: T1, human TREK-1 (Homo sapiens, UniProt O95069); assay: Patch clamp of TREK-1 current in CHO cells transfected with human TREK-1; type: cell-based; settings: CHO cells heterologously expressing human TREK-1; ramp protocol -130 mV to +40 mV in 6 s
T1 construct: expressed in transfected cells; host or cells: CHO cells
T1 sequence (O95069 1-426): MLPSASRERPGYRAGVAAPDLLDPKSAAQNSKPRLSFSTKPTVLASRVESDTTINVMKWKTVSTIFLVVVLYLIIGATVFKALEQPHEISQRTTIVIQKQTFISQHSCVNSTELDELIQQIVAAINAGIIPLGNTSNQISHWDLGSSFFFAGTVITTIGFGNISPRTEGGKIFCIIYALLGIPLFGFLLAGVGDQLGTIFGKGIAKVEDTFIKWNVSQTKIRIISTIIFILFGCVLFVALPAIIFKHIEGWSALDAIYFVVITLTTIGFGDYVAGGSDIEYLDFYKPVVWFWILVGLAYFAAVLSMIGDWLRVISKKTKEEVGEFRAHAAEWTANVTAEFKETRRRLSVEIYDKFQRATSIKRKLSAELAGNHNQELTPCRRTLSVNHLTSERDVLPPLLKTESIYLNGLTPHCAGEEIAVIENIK
Experimental: FIG. 7. […] CHO cells were transfected with a plasmid encoding human TREK-1 and the current was studied by patch clamp. The current-voltage relation was determined using a ramp protocol that went from −130 mV to +40 mV in 6 s (after correction for the junction potential). Current was greater in the presence of meclofenamate. This is typical of 7 cells.
FIG. 8. […] CHO cells were transfected with a plasmid encoding human TREK-1 and the current was studied by patch clamp. The current-voltage relation was determined using a ramp protocol that went from −130 mV to +40 mV in 6 s (after correction for the junction potential). Current was less in the presence of trifluoperazine. This is typical of 3 cells.
CHO cells were transfected with a plasmid encoding human TREK-1 and the current was studied by patch clamp. The current-voltage relation was determined using a ramp protocol that went from −130 mV to +40 mV in 6 s (after correction for the junction potential). Current was greater in the presence of meclofenamate. This is typical of 7 cells.
CHO cells were transfected with a plasmid encoding human TREK-1 and the current was studied by patch clamp. The current-voltage relation was determined using a ramp protocol that went from −130 mV to +40 mV in 6 s (after correction for the junction potential). Current was less in the presence of trifluoperazine. This is typical of 3 cells.

[1] = tested on: normal prostate epithelial cells (NPE) expressing TREK-1; assay: MTT proliferation assay of normal prostate epithelial cells infected with TREK-1 adenovirus; type: cell-based; settings: sipatrigine 10 μM; compared with NPE/TREK-1 and other groups; five paired experiments
Experimental: FIG. 3. Dominant-negative TREK-1 reduces proliferation of PC-3 cells. PC-3 cells were transfected with either dn-TREK (or a control vector (PEGFP) using GeneJammer (Stratagene) under standard conditions. Proliferation of these cells was measured using the MTT assay after the cells were plated at 1×10^5 cells/well in 96 well plates. Data are presented as the mean ±SEM of five experiments. * p<0.05 vs control and EGFP
FIG. 5. Expression of TREK-1 increases proliferation of normal prostate epithelial cells (NPE). Normal prostate epithelial cell cultures were obtained from Clonetics and infected with a TREK-1-containing adenovirus. Some virally infected cells were also treated with sipatrigine (10 μM), a TREK-1 blocker. Cell proliferation was assessed using the MTT assay as described in FIG. 3.
Normal prostate epithelial cell cultures were obtained from Clonetics and infected with a TREK-1-containing adenovirus. Some virally infected cells were also treated with sipatrigine (10 μM), a TREK-1 blocker. Cell proliferation was assessed using the MTT assay as described in FIG. 3.

| SMILES | Effect on TREK-1 current (human TREK-1) | Cell proliferation (MTT) of TREK-1-infected NPE [1] |
| --- | --- | --- |
| Cc1ccc(Cl)c(Nc2ccccc2C(=O)O)c1Cl [Meclofenamate, Meclofenamic acid] | activates TREK-1 current |  |
| CN1CCN(CCCN2c3ccccc3Sc3ccc(C(F)(F)F)cc32)CC1 [Trifluoperazine] | inhibits TREK-1 current |  |
| CN1CCN(c2ncc(-c3cc(Cl)cc(Cl)c3Cl)c(N)n2)CC1 [sipatrigine] |  | no other groups were different |
